Assay results published in ChEMBL document CHEMBL2203257 (Bioorg Med Chem Lett, 2012).

Legend:
[1] = biological target: Phosphorylase b kinase gamma catalytic chain, liver/testis isoform (Homo sapiens, UniProt P15735); experiment: Inhibition of PHKG2
[2] = biological target: Mitogen-activated protein kinase kinase kinase 11 (Homo sapiens, UniProt Q16584); experiment: Inhibition of MAP3K11
[3] = biological target: Mitogen-activated protein kinase 9 (Homo sapiens) (UniProt P45984); experiment: Inhibition of MAPK9
[4] = biological target: Mitogen-activated protein kinase 8 (Homo sapiens, UniProt P45983); experiment: Inhibition of MAPK8
Mitogen-activated protein kinase 8, sequence (P45983 whole entry): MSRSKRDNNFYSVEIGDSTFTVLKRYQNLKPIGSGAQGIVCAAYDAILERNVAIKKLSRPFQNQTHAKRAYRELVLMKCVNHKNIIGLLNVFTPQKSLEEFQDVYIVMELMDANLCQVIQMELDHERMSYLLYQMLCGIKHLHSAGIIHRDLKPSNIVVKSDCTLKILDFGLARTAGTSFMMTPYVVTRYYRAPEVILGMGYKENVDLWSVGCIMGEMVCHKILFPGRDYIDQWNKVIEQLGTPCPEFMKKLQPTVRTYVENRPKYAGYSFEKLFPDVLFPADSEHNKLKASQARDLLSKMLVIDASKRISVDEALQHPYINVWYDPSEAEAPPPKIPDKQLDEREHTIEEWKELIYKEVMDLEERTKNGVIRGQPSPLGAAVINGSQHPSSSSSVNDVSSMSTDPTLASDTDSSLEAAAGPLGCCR

[5] = biological target: Calcium/calmodulin-dependent protein kinase type II subunit delta (Homo sapiens, UniProt Q13557); experiment: Inhibition of CAMK2D
[6] = biological target: Serine/threonine-protein kinase 3 (Homo sapiens, UniProt Q13188); experiment: Inhibition of STK3
Serine/threonine-protein kinase 3, sequence (Q13188 whole entry): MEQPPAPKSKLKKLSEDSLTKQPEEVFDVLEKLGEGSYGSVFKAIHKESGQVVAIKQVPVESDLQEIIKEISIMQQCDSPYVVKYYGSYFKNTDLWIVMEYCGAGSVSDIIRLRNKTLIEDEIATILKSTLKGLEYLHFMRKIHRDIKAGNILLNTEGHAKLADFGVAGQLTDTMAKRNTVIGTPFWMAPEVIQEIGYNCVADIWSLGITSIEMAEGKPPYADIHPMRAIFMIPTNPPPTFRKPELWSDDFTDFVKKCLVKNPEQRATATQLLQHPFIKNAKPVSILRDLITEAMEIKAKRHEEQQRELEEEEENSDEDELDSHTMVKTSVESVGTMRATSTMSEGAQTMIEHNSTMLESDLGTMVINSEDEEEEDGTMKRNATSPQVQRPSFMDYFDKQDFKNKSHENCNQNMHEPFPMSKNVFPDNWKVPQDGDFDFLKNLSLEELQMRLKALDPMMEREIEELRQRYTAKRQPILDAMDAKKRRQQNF

[7] = biological target: Proto-oncogene tyrosine-protein kinase Src (Homo sapiens, UniProt P12931); experiment: Inhibition of SRC
[8] = biological target: Eukaryotic translation initiation factor 2-alpha kinase 1 (Homo sapiens, UniProt Q9BQI3); experiment: Inhibition of EIF2AK1
Cytochrome P450 3A4 = Cytochrome P450 3A4 (Homo sapiens, UniProt P08684); experiment: Inhibition of CYP3A4 at >20 uM; format: ADME
Cytochrome P450 3A4, sequence (P08684 whole entry, canonical isoform): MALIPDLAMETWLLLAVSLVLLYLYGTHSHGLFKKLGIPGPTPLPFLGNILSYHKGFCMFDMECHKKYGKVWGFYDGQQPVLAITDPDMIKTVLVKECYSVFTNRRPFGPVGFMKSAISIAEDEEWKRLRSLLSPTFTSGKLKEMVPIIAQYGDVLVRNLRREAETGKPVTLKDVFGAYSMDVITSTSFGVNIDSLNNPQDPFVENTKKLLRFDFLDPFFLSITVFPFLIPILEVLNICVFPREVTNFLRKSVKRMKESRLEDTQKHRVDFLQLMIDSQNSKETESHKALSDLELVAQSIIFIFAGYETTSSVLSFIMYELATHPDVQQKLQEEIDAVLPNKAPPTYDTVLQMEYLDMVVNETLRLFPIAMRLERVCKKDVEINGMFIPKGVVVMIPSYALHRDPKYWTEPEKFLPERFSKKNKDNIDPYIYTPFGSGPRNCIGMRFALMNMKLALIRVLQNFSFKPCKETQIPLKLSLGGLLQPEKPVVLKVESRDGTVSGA

[9] = biological target: T1, Phosphatidylinositol 4,5-bisphosphate 3-kinase catalytic subunit delta isoform (Homo sapiens, UniProt O00329); experiment: Inhibition of PIK3Cd
T1 sequence (O00329 whole entry): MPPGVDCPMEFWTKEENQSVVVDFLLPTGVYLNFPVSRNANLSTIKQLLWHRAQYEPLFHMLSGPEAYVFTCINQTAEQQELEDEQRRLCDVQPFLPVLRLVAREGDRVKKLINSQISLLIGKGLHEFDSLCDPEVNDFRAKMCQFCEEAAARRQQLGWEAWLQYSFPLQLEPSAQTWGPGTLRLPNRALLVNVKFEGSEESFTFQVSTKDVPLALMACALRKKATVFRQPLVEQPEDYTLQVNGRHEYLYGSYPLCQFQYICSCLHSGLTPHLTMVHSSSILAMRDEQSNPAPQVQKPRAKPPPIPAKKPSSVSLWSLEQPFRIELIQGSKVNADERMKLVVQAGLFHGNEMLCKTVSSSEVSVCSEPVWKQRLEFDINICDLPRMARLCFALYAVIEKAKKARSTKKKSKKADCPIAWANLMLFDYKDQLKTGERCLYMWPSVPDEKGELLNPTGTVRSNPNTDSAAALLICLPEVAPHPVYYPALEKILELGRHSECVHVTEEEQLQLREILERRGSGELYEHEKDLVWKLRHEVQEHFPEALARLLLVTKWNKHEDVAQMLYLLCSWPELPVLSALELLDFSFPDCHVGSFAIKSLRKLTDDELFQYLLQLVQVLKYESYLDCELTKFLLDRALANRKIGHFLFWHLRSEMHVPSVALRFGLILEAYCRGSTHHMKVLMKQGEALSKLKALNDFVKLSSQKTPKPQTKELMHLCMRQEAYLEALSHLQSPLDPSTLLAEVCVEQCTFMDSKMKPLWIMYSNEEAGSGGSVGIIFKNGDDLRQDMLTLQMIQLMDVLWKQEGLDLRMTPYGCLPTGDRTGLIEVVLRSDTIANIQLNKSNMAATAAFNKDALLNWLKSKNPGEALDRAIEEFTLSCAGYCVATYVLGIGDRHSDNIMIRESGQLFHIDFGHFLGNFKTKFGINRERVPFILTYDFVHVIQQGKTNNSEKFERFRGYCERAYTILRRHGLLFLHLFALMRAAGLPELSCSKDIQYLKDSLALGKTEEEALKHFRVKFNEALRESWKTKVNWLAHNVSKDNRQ

[10] = biological target: Serine/threonine-protein kinase B-raf (Homo sapiens, UniProt P15056); experiment: Inhibition of BRAF
[11] = biological target: Calcium/calmodulin-dependent protein kinase type IV (Homo sapiens, UniProt Q16566); experiment: Inhibition of CAMK4
[12] = biological target: Tyrosine-protein kinase Yes (Homo sapiens, UniProt P07947); experiment: Inhibition of YES1
[13] = biological target: Mitogen-activated protein kinase kinase kinase kinase 3 (Homo sapiens, UniProt Q8IVH8); experiment: Inhibition of MAP4K3
Ephrin type-A receptor 3 = Ephrin type-A receptor 3 (Homo sapiens, UniProt P29320); experiment: Inhibition of EPHA3
Aurora kinase B = Aurora kinase B (Homo sapiens, UniProt Q96GD4); experiment: Inhibition of AURKB
Mus musculus [14] = experiment: Antiinflammatory activity in mouse air pouch model assessed as effect on IL-8-induced migration of granulocytes into air pouch at 10 mg/kg, po; format: functional
[15] = biological target: Tyrosine-protein kinase ITK/TSK (Homo sapiens, UniProt Q08881); experiment: Inhibition of ITK
Tyrosine-protein kinase ITK/TSK, sequence (Q08881 whole entry): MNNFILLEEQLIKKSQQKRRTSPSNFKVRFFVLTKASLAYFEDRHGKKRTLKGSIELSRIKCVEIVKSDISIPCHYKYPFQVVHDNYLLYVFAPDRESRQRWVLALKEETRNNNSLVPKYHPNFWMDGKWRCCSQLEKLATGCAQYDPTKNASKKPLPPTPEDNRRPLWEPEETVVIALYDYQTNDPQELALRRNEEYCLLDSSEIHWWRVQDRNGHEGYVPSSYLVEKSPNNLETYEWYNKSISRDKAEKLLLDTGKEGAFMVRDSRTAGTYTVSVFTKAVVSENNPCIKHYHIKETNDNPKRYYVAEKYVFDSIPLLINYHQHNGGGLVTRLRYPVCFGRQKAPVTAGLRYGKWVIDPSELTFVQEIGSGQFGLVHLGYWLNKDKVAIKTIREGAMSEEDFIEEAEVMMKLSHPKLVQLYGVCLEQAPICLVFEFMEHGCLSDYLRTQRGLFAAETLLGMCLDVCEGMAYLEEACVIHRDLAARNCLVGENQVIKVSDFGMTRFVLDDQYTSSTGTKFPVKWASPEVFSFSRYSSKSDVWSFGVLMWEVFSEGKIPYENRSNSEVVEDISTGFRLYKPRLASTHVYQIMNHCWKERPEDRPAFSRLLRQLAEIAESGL

[16] = biological target: Glycogen synthase kinase-3 alpha (Homo sapiens, UniProt P49840); experiment: Inhibition of GSK3A
[17] = biological target: Mitogen-activated protein kinase 14 (Homo sapiens, UniProt Q16539); experiment: Inhibition of MAPK14
[18] = biological target: Phosphatidylinositol 4,5-bisphosphate 3-kinase catalytic subunit alpha isoform (Homo sapiens, UniProt P42336); experiment: Inhibition of PIK3Ca
Phosphatidylinositol 4,5-bisphosphate 3-kinase catalytic subunit alpha isoform, sequence (P42336 whole entry, canonical isoform): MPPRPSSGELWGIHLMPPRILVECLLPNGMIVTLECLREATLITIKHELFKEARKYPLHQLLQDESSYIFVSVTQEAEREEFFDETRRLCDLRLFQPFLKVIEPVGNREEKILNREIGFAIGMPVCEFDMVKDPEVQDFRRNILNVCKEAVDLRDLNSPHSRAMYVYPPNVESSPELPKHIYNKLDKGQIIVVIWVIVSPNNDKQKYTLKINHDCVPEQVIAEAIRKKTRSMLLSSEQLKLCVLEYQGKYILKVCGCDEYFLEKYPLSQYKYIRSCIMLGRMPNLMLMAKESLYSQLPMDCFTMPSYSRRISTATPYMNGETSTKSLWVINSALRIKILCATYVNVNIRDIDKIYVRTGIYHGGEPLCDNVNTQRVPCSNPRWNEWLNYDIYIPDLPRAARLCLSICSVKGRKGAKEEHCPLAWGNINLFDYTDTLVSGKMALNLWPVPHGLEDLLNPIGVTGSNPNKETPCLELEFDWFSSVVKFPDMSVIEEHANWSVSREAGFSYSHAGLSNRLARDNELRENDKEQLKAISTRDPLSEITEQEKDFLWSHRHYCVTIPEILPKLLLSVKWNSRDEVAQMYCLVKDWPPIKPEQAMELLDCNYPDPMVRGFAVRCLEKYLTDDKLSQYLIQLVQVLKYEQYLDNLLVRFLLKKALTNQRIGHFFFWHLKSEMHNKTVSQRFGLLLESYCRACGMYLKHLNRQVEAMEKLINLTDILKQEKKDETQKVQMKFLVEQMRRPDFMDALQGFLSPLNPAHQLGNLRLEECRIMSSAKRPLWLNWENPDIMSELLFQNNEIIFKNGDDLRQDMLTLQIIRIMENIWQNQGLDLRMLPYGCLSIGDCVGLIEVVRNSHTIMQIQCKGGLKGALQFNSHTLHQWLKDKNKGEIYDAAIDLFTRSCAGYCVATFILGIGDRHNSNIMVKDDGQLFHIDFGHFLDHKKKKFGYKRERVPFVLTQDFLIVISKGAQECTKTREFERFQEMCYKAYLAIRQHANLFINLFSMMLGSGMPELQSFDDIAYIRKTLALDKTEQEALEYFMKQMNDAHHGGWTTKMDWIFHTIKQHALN

[19] = Cmax in mouse at 3 mg/kg, po BID; format: ADME, organism-based; design: dose 3 mg/kg, route oral; details: in vivo
[20] = Clearance in cynomolgus monkey; format: ADME, organism-based, Macaca fascicularis; details: in vivo
Mus musculus [21] = experiment: Antiarthritic activity against collagen-induced arthritis mouse model assessed as inhibition of disease progression at 10 mg/kg, po BID for 14 days; format: functional; details: 336 h
[22] = biological target: Phosphatidylinositol 4-kinase beta (Homo sapiens, UniProt Q9UBF8); experiment: Inhibition of PIK4Cb
[23] = biological target: Phosphatidylinositol 4,5-bisphosphate 3-kinase catalytic subunit gamma isoform (Homo sapiens, UniProt P48736); experiment: Inhibition of PIK3Cg
[24] = biological target: Receptor-interacting serine/threonine-protein kinase 2 (Homo sapiens, UniProt O43353); experiment: Inhibition of RIPK2
[25] = biological target: Atypical kinase COQ8B, mitochondrial (Homo sapiens, UniProt Q96D53); experiment: Inhibition of ADCK4
[26] = biological target: Mitogen-activated protein kinase kinase kinase 4 (Homo sapiens, UniProt Q9Y6R4); experiment: Inhibition of MAP3K4
[27] = biological target: Tyrosine-protein kinase ABL1 (Homo sapiens, UniProt P00519); experiment: Inhibition of ABL1
[28] = biological target: Serine/threonine-protein kinase RIO2 (Homo sapiens, UniProt Q9BVS4); experiment: Inhibition of RIOK2
Serine/threonine-protein kinase RIO2, sequence (Q9BVS4 whole entry): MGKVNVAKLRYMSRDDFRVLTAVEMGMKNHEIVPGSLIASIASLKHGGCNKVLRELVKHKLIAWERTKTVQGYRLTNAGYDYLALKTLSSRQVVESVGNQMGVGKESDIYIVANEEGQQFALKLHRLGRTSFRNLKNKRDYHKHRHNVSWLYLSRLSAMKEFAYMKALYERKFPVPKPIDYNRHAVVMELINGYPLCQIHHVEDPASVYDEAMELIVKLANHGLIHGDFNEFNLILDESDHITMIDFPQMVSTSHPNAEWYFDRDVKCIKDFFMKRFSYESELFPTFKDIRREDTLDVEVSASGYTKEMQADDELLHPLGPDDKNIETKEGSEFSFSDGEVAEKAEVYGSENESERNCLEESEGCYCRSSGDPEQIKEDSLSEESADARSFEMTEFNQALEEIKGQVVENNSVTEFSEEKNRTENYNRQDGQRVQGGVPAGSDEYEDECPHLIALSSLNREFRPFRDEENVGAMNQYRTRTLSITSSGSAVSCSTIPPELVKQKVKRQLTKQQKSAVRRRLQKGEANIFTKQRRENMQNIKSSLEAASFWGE

[29] = biological target: Calcium/calmodulin-dependent protein kinase type 1D (Homo sapiens, UniProt Q8IU85); experiment: Inhibition of CAMK1D
[30] = biological target: Bone morphogenetic protein receptor type-1A (Homo sapiens, UniProt P36894); experiment: Inhibition of BMPR1A
LIM domain kinase 2 = LIM domain kinase 2 (Homo sapiens, UniProt P53671); experiment: Inhibition of LIMK2
LIM domain kinase 2, sequence (P53671 whole entry, the tested form may be a part): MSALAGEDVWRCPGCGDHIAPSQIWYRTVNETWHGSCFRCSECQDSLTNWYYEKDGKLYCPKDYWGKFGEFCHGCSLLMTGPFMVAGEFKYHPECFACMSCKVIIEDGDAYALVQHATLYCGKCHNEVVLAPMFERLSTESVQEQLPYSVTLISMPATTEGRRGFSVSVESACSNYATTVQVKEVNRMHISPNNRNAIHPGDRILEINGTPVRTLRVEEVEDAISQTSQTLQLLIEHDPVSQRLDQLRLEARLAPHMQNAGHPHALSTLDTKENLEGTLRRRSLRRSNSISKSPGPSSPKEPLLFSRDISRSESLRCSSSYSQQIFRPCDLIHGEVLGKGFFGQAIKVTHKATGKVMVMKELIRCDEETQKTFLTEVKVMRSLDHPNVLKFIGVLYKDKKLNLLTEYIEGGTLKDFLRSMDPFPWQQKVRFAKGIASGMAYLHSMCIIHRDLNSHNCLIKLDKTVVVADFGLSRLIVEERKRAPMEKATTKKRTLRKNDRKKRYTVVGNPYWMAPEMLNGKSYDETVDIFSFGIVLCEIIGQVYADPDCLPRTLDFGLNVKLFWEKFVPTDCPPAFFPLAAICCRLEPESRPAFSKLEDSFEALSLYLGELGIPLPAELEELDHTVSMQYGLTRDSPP

[31] = biological target: Dual specificity mitogen-activated protein kinase kinase 5 (Homo sapiens, UniProt Q13163); experiment: Inhibition of MAP2K5
[32] = biological target: Bromodomain-containing protein 3 (Homo sapiens, UniProt Q15059); experiment: Inhibition of BRD3
Bromodomain-containing protein 3, sequence (Q15059 whole entry): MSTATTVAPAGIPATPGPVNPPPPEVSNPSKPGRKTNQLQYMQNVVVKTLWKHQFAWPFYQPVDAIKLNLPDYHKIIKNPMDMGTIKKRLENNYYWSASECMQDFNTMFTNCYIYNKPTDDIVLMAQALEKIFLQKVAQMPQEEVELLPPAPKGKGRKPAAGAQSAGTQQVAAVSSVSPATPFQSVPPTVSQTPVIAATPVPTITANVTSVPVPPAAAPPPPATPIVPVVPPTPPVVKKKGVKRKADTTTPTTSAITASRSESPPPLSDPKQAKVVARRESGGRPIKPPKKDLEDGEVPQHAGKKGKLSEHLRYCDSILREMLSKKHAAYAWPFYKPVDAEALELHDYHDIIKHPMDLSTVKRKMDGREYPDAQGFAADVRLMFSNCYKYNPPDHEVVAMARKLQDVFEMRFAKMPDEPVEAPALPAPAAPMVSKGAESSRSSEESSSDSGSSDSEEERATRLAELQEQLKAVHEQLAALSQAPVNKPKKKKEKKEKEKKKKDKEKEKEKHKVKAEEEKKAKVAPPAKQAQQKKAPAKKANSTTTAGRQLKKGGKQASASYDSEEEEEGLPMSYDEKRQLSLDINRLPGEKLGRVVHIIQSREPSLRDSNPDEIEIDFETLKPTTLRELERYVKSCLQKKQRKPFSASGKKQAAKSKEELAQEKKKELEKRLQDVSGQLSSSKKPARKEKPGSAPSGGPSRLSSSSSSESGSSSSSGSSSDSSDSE

TGF-beta receptor type-1 = TGF-beta receptor type-1 (Homo sapiens, UniProt P36897); experiment: Inhibition of TGFBR1

- IC50 [1]: > 10 µM
- IC50 [2]: > 10 µM
- IC50 [3]: > 10 µM
- IC50 [4]: > 10 µM
- IC50 [5]: > 10 µM
- IC50 [6]: > 10 µM
- IC50 [7]: > 10 µM
- IC50 [8]: > 10 µM
- inhibition (INH) (Cytochrome P450 3A4): Active
- IC50 [9]: 0.708 µM
- IC50 [10]: > 10 µM
- IC50 [11]: > 10 µM
- IC50 [12]: > 10 µM
- IC50 [13]: > 10 µM
- IC50 (Ephrin type-A receptor 3): > 10 µM
- IC50 (Aurora kinase B): > 10 µM
- IC50 [15]: > 10 µM
- IC50 [16]: > 10 µM
- IC50 [17]: > 10 µM
- IC50 [18]: 2.45 µM
- Cmax [19]: 2500 nM
- clearance [20]: 1.6 mL/min/kg
- IC50 [22]: > 10 µM
- IC50 [23]: 0.0245 µM
- IC50 [24]: > 10 µM
- IC50 [25]: > 10 µM
- IC50 [26]: > 10 µM
- IC50 [27]: > 10 µM
- IC50 [28]: > 5.89 µM
- IC50 [29]: > 10 µM
- IC50 [30]: > 10 µM
- IC50 (LIM domain kinase 2): > 10 µM
- IC50 [31]: > 10 µM
- IC50 [32]: > 10 µM
- IC50 (TGF-beta receptor type-1): > 10 µM
SMILES: CC(C)(C)NS(=O)(=O)c1cncc(-c2ccn3nc(N)nc3c2)c1
- Activity (Mus musculus [14]): 73%
- inhibition in vivo at 10 mg/kg (Mus musculus [21]): 46%
